The text below walks through data of patent US8008291B2 (Mimetica Pty Ltd, priority 2008, dated 2011).

For this experiment, the target named is T1, human MC5R (hMC5R) (Homo sapiens, UniProt P33032).
T1 construct: purchased Perkin Elmer RBXMC5M400UA
T1 sequence (P33032 whole entry): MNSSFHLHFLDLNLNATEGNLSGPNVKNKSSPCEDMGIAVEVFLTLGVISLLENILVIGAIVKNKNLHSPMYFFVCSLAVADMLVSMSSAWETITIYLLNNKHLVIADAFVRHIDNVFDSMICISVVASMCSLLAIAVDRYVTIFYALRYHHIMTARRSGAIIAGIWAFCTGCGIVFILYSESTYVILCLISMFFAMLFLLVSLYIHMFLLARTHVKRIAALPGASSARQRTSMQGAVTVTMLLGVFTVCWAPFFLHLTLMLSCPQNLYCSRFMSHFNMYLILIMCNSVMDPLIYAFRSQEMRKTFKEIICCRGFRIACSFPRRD
The experiment in a line: Human MC5R radioligand binding assay (membranes, [125I] NDP-MSH displacement). As to conditions: hMC5R binding; tested as trifluoroacetate or hydrochloride salts, or free bases; read-out: MC5R radioligand IC50. In outline: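 Displacement of [125I]NDP-MSH (radioiodinated in house, HPLC-purified) from hMC5R membranes by test compound measured after 1 hr incubation at 37° C.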
In the case of `C[C@H](CN1CC[C@@H](CNC(=O)c2ccc3ccccc3c2)N[C@@H](CCN2CCCCC2)C1=O)c1ccc(Cl)cc1` [Compound 424, N-(((3S,5S)-1-((S)-2-(4-chlorophenyl)propyl)-2-oxo-3-(2-(piperidin-1-yl)ethyl)-1,4-diazepan-5-yl)methyl)-2-naphthamide], the IC50 (commonly the concentration that inhibits the measured activity by half) is less than 1000 nM.

Turning to `CC[C@H](CN1CC[C@@H](CNC(=O)c2ccc(Cl)c(Cl)c2)N[C@@H](CCN(C)c2ccccc2)C1=O)c1ccccc1` [Compound 425, 3,4-dichloro-N-(((3S,5S)-3-(2-(methyl(phenyl)amino)ethyl)-2-oxo-1-((S)-2-phenylbutyl)-1,4-diazepan-5-yl)methyl)benzamide], the half-maximal inhibitory concentration (IC50) is less than 1000 nM.

`CC[C@H](CN1CC[C@@H](CNC(=O)c2ccc(Cl)c(Cl)c2)N[C@@H](CCN(CC)CC)C1=O)c1ccccc1` [Compound 426, 3,4-dichloro-N-(((3S,5S)-3-(2-(diethylamino)ethyl)-2-oxo-1-((S)-2-phenylbutyl)-1,4-diazepan-5-yl)methyl)benzamide]: the IC50 is less than 100 nM.

Take `CC[C@H](CN1CC[C@@H](CNC(=O)c2ccc(Cl)c(Cl)c2)N[C@@H](CCN2CCOCC2)C1=O)c1ccccc1` [Compound 427, 3,4-dichloro-N-(((3S,5S)-3-(2-morpholinoethyl)-2-oxo-1-((S)-2-phenylbutyl)-1,4-diazepan-5-yl)methyl)benzamide]: the half-maximal inhibitory concentration (IC50) was less than 100 nM.

With `CC[C@H](CN1CC[C@@H](CNC(=O)c2ccc(Cl)c(Cl)c2)N[C@@H](CCNc2ccccc2)C1=O)c1ccccc1` [Compound 428, 3,4-dichloro-N-(((3S,5S)-2-oxo-3-(2-(phenylamino)ethyl)-1-((S)-2-phenylbutyl)-1,4-diazepan-5-yl)methyl)benzamide], the half-inhibitory concentration (IC50) is less than 1000 nM.

Regarding `CC[C@H](CN1CC[C@@H](CNC(=O)c2ccc(Cl)c(Cl)c2)N[C@@H](CCNCc2ccccc2)C1=O)c1ccccc1` [Compound 429, N-(((3S,5S)-3-(2-(benzylamino)ethyl)-2-oxo-1-((S)-2-phenylbutyl)-1,4-diazepan-5-yl)methyl)-3,4-dichlorobenzamide], the IC50 was less than 100 nM.

Take `CC[C@H](CN1CC[C@@H](CNC(=O)c2ccc(Cl)c(Cl)c2)N[C@@H](CCNC(C)(C)C)C1=O)c1ccccc1` [Compound 430, N-(((3S,5S)-3-(2-(tert-butylamino)ethyl)-2-oxo-1-((S)-2-phenylbutyl)-1,4-diazepan-5-yl)methyl)-3,4-dichlorobenzamide]: the IC50 is less than 100 nM.

Consider `CC[C@H](CN1CC[C@@H](CNC(=O)c2ccc(Cl)c(Cl)c2)N[C@@H](CCN2CCN(C)CC2)C1=O)c1ccccc1` [Compound 431, 3,4-dichloro-N-(((3S,5S)-3-(2-(4-methylpiperazin-1-yl)ethyl)-2-oxo-1-((S)-2-phenylbutyl)-1,4-diazepan-5-yl)methyl)benzamide], for which the half-maximal inhibitory concentration (IC50) was less than 100 nM.

For the compound `CCC[C@@H](CN1CC[C@@H](CNC(=O)c2ccc3ccccc3c2)N[C@@H](CCN2CCCCC2)C1=O)c1ccccc1` [Compound 432, N-(((3S,5S)-2-oxo-1-((R)-2-phenylpentyl)-3-(2-(piperidin-1-yl)ethyl)-1,4-diazepan-5-yl)methyl)-2-naphthamide], the IC50 is less than 100 nM.

Regarding `CCC[C@H](CN1CC[C@@H](CNC(=O)c2ccc3ccccc3c2)N[C@@H](CCN2CCCCC2)C1=O)c1ccccc1` [Compound 433, N-(((3S,5S)-2-oxo-1-((S)-2-phenylpentyl)-3-(2-(piperidin-1-yl)ethyl)-1,4-diazepan-5-yl)methyl)-2-naphthamide], the IC50 is less than 100 nM.

Consider `O=C(NC[C@@H]1CCN(CC(c2ccccc2)c2ccccc2)C(=O)[C@H](CCN2CCCCC2)N1)c1ccc(C(F)(F)F)cc1` [Compound 434, N-(((3S,5S)-1-(2,2-diphenylethyl)-2-oxo-3-(2-(piperidin-1-yl)ethyl)-1,4-diazepan-yl)methyl)-4-(trifluoromethyl)benzamide], for which the IC50 is less than 100 nM.

For `NCC[C@@H]1N[C@H](CNC(=O)c2ccc(C(F)(F)F)cc2)CCN(CC(c2ccccc2)c2ccccc2)C1=O` [Compound 435, N-(((3S,5S)-3-(2-aminoethyl)-1-(2,2-diphenylethyl)-2-oxo-1,4-diazepan-5-yl)methyl)-4-(trifluoromethyl)benzamide], the IC50 was less than 10000 nM.

As for `O=C(NC[C@@H]1CCN(CC(c2ccccc2)c2ccccc2)C(=O)[C@H](CCN2CCCCC2)N1)c1cccc(C(F)(F)F)c1` [Compound 436, N-(((3S,5S)-1-(2,2-diphenylethyl)-2-oxo-3-(2-(piperidin-1-yl)ethyl)-1,4-diazepan-5-yl)methyl)-3-(trifluoromethyl)benzamide], the IC50 was less than 1000 nM.

For `NCC[C@@H]1N[C@H](CNC(=O)c2cccc(C(F)(F)F)c2)CCN(CC(c2ccccc2)c2ccccc2)C1=O` [Compound 437, N-(((3S,5S)-3-(2-aminoethyl)-1-(2,2-diphenylethyl)-2-oxo-1,4-diazepan-5-yl)methyl)-3-(trifluoromethyl)benzamide], the 50% inhibitory concentration (IC50) is less than 10000 nM.

For `CC(C)NCC[C@@H]1N[C@H](CNC(=O)c2ccc3cc(Cl)ccc3c2)CCN(Cc2cc(Cl)cc(Cl)c2)C1=O` [Compound 438, 6-chloro-N-(((3S,5S)-1-(3,5-dichlorobenzyl)-3-(2-(isopropylamino)ethyl)-2-oxo-1,4-diazepan-5-yl)methyl)-2-naphthamide], the IC50 is less than 10 nM.

As to `CC(C)NCC[C@@H]1N[C@H](CNC(=O)c2ccc(Cl)c(Cl)c2)CCN(Cc2cc(Cl)cc(Cl)c2)C1=O` [Compound 439, 3,4-dichloro-N-(((3S,5S)-1-(3,5-dichlorobenzyl)-3-(2-(isopropylamino)ethyl)-2-oxo-1,4-diazepan-5-yl)methyl)benzamide], the IC50 was less than 100 nM.

As for `CC[C@H](CN1CC[C@@H](CNC(=O)c2ccc3cc(Cl)ccc3c2)N[C@@H](CCNC(C)C)C1=O)c1ccccc1` [Compound 440, 6-chloro-N-(((3S,5S)-3-(2-(isopropylamino)ethyl)-2-oxo-1-((S)-2-phenylbutyl)-1,4-diazepan-5-yl)methyl)-2-naphthamide], the IC50 was less than 10 nM.

On to `CC[C@H](CN1CC[C@@H](CNC(=O)c2ccc3cc(Cl)ccc3c2)N[C@@H](CCN)C1=O)c1ccccc1` [Compound 441, N-(((3S,5S)-3-(2-aminoethyl)-2-oxo-1-((S)-2-phenylbutyl)-1,4-diazepan-5-yl)methyl)-6-chloro-2-naphthamide], for which the IC50 is less than 100 nM.

`CC[C@H](CN1CC[C@@H](CNC(=O)c2ccc(Cl)c(Cl)c2)N[C@@H](CCN(C)Cc2ccccc2)C1=O)c1ccccc1` [Compound 442, N-(((3S,5S)-3-(2-(benzyl(methyl)amino)ethyl)-2-oxo-1-((S)-2-phenylbutyl)-1,4-diazepan-5-yl)methyl)-3,4-dichlorobenzamide]: the IC50 is less than 10 nM.

Turning to `CC[C@H](CN1CC[C@@H](CNC(=O)c2ccc(Cl)c(Cl)c2)N[C@@H](CCN2CCNCC2)C1=O)c1ccccc1` [Compound 443, 3,4-dichloro-N-(((3S,5S)-2-oxo-1-((S)-2-phenylbutyl)-3-(2-(piperazin-1-yl)ethyl)-1,4-diazepan-5-yl)methyl)benzamide], the IC50 was less than 100 nM.

`CCCCCN(C)CC[C@@H]1N[C@H](CNC(=O)c2ccc(Cl)c(Cl)c2)CCN(C[C@@H](CC)c2ccccc2)C1=O` [Compound 444, 3,4-dichloro-N-(((3S,5S)-3-(2-(methyl(pentyl)amino)ethyl)-2-oxo-1-((S)-2-phenylbutyl)-1,4-diazepan-5-yl)methyl)benzamide]: the half-inhibitory concentration (IC50) is less than 100 nM.

As to `CC[C@H](CN1CC[C@@H](CNC(=O)c2ccc(Cl)c(Cl)c2)N[C@@H](CCN(C(C)C)C(C)C)C1=O)c1ccccc1` [Compound 445, 3,4-dichloro-N-(((3S,5S)-3-(2-(diisopropylamino)ethyl)-2-oxo-1-((S)-2-phenylbutyl)-1,4-diazepan-5-yl)methyl)benzamide], the IC50 is less than 10 nM.

On to `CC[C@H](CN1CC[C@@H](CNC(=O)c2ccc(Cl)c(Cl)c2)N[C@@H](CCN2CCC(C)CC2)C1=O)c1ccccc1` [Compound 446, 3,4-dichloro-N-(((3S,5S)-3-(2-(4-methylpiperidin-1-yl)ethyl)-2-oxo-1-((S)-2-phenylbutyl)-1,4-diazepan-5-yl)methyl)benzamide], for which the half-maximal inhibitory concentration (IC50) is less than 10 nM.

Regarding `CC[C@H](CN1CCC(CNC(=O)c2ccc3cc(Cl)ccc3c2)NC(C2CCNCC2)C1=O)c1ccccc1` (stereo partly drawn) [Compound 447, (S)-6-chloro-N-((2-oxo-1-(2-phenylbutyl)-3-(piperidin-4-yl)-1,4-diazepan-5-yl)methyl)-2-naphthamide], the IC50 is less than 100 nM.

In the case of `CC[C@H](CN1CCC(CNC(=O)c2ccc3cc(Cl)ccc3c2)NC(C2CCN(CCC(C)C)CC2)C1=O)c1ccccc1` (some centres unmarked) [Compound 448], the half-inhibitory concentration (IC50) was less than 100 nM.

Regarding `CC[C@H](CN1CC[C@@H](CNC(=O)c2ccc(Cl)c(Cl)c2)N[C@@H](CCN2CC(C)CC(C)C2)C1=O)c1ccccc1` (stereo partly drawn) [Compound 449, 3,4-dichloro-N-(((3S,5S)-3-(2-(3,5-dimethylpiperidin-1-yl)ethyl)-2-oxo-1-((S)-2-phenylbutyl)-1,4-diazepan-5-yl)methyl)benzamide], the IC50 is less than 100 nM.

On to `CC[C@H](CN1CC[C@@H](CNC(=O)c2ccc(Cl)c(Cl)c2)N[C@@H](CCN2CCC(O)CC2)C1=O)c1ccccc1` [Compound 450, 3,4-dichloro-N-(((3S,5S)-3-(2-(4-hydroxypiperidin-1-yl)ethyl)-2-oxo-1-((S)-2-phenylbutyl)-1,4-diazepan-5-yl)methyl)benzamide], for which the half-maximal inhibitory concentration (IC50) is less than 100 nM.

Take `CC[C@H](CN1CC[C@@H](CNC(=O)c2ccc(Cl)c(Cl)c2)N[C@@H](CCN2CCC(C(=O)O)CC2)C1=O)c1ccccc1` [Compound 451, 1-(2-((2S,7S)-7-((3,4-dichlorobenzamido)methyl)-3-oxo-4-((S)-2-phenylbutyl)-1,4-diazepan-2-yl)ethyl)piperidine-4-carboxylic acid]: the half-maximal inhibitory concentration (IC50) is less than 100 nM.

With `CC[C@H](CN1CC[C@@H](CNC(=O)c2ccc(Cl)c(Cl)c2)N[C@@H](CCN2CCCCCC2)C1=O)c1ccccc1` [Compound 452, N-(((3S,5S)-3-(2-(azepan-1-yl)ethyl)-2-oxo-1-((S)-2-phenylbutyl)-1,4-diazepan-5-yl)methyl)-3,4-dichlorobenzamide], the IC50 is less than 100 nM.
